Source: ChEMBL document CHEMBL1148786, “L-(+)-2-Amino-4-thiophosphonobutyric acid (L-thioAP4), a new potent agonist of group III metabotropic glutamate receptors: increased distal acidity affords enhanced potency” (J Med Chem, 2007)
Activity calls are given as the source filed them. The calls are words filed in the database; no cut-off is given here.

Columns and labels:
[1] = biological target: Metabotropic glutamate receptor 1 (Homo sapiens) (UniProt Q13255); experiment: Activity at mGluR1 receptor at 100 uM
[2] = biological target: Metabotropic glutamate receptor 5 (Homo sapiens) (UniProt P41594); experiment: Activity at mGluR5 receptor at 100 uM
[3] = biological target: Metabotropic glutamate receptor 2 (Homo sapiens) (UniProt Q14416); experiment: Activity at mGluR2 receptor at 100 uM
[4] = biological target: Metabotropic glutamate receptor 3 (Homo sapiens) (UniProt Q14832); experiment: Activity at mGluR3 receptor at 100 uM
[5] = biological target: Metabotropic glutamate receptor 4 (Rattus norvegicus, UniProt P31423); experiment: Agonist activity at rat mGluR4 receptor expressed HEK293 cells assessed as effect on inositol phosphate production; assay type: functional, cell-based
[6] = biological target: Metabotropic glutamate receptor 6 (Rattus norvegicus, UniProt P35349); experiment: Agonist activity at rat mGluR6 receptor expressed HEK293 cells assessed as effect on inositol phosphate production; assay type: functional, cell-based
[7] = biological target: Metabotropic glutamate receptor 7 (Rattus norvegicus, UniProt P35400); experiment: Agonist activity at rat mGluR7 receptor expressed HEK293 cells assessed as effect on inositol phosphate production; assay type: functional, cell-based
[8] = biological target: Metabotropic glutamate receptor 8 (Rattus norvegicus, UniProt P70579); experiment: Agonist activity at rat mGluR8 receptor expressed HEK293 cells assessed as effect on inositol phosphate production; assay type: functional, cell-based

Metabotropic glutamate receptor 2 (Homo sapiens), sequence (Q14416 19-872 limits assumed): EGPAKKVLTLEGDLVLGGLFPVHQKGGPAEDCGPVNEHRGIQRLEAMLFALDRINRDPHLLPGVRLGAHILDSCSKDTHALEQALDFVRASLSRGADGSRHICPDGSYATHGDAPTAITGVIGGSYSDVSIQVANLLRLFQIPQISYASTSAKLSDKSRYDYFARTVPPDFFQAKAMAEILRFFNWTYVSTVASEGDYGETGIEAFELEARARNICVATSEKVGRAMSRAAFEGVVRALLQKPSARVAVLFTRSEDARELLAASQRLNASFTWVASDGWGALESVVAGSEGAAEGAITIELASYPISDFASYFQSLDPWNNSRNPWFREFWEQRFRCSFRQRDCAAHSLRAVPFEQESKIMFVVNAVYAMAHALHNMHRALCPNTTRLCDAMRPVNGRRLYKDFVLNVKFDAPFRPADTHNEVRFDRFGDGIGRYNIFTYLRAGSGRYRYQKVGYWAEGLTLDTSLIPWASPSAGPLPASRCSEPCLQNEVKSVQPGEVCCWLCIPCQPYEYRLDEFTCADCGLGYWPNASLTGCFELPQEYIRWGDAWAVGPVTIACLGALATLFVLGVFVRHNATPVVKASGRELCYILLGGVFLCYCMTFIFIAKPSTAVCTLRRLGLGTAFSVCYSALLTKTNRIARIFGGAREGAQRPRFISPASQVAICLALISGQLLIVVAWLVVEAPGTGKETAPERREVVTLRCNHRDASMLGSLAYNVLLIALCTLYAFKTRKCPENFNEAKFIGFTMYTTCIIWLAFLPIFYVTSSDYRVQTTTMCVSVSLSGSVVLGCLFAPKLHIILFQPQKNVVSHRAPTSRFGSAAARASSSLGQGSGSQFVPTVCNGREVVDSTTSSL
Metabotropic glutamate receptor 3 (Homo sapiens), sequence (Q14832 23-879 limits assumed): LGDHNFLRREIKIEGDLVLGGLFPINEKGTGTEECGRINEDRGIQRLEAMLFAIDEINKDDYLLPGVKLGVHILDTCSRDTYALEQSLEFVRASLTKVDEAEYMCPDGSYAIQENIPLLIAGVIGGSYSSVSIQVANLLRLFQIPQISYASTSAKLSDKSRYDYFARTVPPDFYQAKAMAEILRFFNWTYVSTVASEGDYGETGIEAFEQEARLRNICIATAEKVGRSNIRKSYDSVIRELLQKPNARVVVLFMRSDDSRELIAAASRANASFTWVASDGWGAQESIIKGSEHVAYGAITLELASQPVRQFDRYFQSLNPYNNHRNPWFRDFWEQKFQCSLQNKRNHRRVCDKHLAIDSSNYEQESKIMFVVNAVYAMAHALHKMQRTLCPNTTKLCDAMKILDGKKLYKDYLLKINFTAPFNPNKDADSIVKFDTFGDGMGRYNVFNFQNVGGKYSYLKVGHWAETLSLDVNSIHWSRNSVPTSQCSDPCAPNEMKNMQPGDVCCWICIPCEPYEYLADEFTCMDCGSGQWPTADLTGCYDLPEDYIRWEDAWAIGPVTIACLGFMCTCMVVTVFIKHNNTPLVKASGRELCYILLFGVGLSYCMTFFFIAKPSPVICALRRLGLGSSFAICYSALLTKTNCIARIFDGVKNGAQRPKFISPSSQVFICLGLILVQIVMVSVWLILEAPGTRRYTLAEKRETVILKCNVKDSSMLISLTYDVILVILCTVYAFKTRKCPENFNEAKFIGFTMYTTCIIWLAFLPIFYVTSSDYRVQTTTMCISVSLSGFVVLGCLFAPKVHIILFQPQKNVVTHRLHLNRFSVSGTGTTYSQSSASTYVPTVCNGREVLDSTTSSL
Metabotropic glutamate receptor 5 (Homo sapiens), sequence (P41594 21-1212 limits assumed): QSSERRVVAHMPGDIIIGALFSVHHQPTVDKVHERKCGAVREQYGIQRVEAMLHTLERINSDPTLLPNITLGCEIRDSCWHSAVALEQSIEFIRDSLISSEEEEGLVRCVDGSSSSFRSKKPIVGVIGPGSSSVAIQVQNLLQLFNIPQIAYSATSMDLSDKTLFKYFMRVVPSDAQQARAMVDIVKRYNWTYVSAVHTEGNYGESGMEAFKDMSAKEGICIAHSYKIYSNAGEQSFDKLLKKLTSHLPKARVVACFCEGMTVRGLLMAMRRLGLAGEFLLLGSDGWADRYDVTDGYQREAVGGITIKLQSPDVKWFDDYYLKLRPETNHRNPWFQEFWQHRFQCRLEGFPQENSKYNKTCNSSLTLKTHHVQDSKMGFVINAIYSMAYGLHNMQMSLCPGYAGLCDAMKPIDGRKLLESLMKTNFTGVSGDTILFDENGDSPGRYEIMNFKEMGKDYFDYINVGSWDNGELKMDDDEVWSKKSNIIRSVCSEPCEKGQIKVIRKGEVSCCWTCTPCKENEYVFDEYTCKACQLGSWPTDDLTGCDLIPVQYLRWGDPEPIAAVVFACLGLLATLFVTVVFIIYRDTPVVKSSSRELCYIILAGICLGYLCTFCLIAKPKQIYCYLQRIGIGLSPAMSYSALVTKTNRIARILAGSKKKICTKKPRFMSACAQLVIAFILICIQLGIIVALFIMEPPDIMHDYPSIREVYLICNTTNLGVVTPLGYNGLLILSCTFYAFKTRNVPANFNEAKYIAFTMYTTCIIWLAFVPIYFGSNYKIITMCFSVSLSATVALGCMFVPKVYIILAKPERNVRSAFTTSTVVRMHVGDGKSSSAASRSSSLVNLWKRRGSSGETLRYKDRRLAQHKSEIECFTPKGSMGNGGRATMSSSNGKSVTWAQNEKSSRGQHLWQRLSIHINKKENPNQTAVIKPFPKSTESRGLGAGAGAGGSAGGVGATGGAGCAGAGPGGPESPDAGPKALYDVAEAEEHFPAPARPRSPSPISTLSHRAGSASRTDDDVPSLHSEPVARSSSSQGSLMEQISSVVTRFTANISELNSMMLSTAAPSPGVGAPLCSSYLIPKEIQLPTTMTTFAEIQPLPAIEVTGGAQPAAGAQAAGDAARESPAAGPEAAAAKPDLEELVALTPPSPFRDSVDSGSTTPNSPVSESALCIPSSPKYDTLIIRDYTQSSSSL
Metabotropic glutamate receptor 1 (Homo sapiens), sequence (Q13255 19-1194 limits assumed): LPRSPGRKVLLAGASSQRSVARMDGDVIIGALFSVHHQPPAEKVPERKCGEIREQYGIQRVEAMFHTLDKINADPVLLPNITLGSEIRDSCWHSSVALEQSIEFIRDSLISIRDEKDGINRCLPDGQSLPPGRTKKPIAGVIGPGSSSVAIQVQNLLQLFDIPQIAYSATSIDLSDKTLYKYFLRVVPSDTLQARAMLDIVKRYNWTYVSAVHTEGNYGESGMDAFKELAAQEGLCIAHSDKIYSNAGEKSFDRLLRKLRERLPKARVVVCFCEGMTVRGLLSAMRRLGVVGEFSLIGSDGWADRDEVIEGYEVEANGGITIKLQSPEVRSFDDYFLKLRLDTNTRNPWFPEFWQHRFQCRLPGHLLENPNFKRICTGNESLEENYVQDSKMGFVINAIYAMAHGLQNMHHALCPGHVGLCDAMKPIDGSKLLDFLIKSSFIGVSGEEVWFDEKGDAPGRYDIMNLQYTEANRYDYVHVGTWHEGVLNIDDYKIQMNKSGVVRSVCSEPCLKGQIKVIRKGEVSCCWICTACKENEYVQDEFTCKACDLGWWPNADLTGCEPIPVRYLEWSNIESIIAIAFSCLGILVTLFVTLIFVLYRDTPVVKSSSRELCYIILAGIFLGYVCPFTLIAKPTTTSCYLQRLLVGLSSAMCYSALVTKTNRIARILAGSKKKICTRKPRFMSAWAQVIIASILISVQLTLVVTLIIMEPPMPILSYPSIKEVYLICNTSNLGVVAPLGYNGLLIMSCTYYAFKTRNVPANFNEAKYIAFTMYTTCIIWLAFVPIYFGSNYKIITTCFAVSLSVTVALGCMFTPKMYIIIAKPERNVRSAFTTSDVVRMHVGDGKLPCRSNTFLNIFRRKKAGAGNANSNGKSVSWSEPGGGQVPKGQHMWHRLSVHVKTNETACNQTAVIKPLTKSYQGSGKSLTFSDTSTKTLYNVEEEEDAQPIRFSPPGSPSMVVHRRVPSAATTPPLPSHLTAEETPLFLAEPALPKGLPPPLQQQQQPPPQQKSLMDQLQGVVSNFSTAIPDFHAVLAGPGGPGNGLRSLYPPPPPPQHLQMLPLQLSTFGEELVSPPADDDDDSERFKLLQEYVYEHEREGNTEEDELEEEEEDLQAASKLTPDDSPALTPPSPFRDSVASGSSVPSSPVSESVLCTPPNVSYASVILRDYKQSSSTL
Metabotropic glutamate receptor 7, sequence (P35400 whole entry): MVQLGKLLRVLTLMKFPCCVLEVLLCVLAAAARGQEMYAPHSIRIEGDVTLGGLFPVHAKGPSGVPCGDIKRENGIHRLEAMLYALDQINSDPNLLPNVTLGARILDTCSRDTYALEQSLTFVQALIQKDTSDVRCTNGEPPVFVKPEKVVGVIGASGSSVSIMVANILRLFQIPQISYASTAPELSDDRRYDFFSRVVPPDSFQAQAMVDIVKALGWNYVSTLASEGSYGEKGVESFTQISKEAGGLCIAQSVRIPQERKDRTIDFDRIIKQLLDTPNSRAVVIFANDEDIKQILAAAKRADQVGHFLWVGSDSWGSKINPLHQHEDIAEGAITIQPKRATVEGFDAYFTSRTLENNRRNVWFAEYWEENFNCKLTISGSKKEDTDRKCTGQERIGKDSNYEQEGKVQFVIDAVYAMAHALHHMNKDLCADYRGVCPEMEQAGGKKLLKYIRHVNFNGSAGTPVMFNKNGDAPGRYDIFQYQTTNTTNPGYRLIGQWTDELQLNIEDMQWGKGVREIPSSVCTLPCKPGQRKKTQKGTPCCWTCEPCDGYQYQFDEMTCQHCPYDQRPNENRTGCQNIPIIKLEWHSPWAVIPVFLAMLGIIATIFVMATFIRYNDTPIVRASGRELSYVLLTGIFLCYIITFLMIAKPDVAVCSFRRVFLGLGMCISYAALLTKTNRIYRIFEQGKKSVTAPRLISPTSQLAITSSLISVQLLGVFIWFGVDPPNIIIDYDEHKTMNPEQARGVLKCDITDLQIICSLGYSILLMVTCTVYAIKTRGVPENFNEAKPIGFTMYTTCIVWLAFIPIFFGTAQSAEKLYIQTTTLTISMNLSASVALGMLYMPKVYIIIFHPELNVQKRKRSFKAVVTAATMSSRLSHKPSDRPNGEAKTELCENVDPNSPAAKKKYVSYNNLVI

Compound	Activity [1]	Activity [2]	Activity [3]	Activity [4]	EC50 [5] [µM]	EC50 [6] [µM]	EC50 [7] [µM]	EC50 [8] [µM]
N[C@@H](CCP(=O)(O)O)C(=O)O	inactive	inactive	inactive	inactive				
N[C@@H](CC[PH](=O)O)C(=O)O	inactive	inactive	inactive	inactive	4.05	27.8	> 500	1.72
CP(=O)(O)CC[C@H](N)C(=O)O [PHOSPHINOTHRICIN]	inactive	inactive	inactive	inactive	1100	> 500	> 500	412
N[C@@H](CCP(O)(O)=S)C(=O)O	inactive	inactive	inactive	inactive				
